In patent US9926297B2, “Bicyclic AZA compounds as muscarinic M1 receptor and/or M4 receptor agonists” (Heptares Therapeutics Limited, priority 2014, dated 2018):

Experiments:
[1] = target: T1, human muscarinic M4 receptor (Homo sapiens, UniProt P08173); experiment: Alphascreen Surefire phospho-ERK1/2 functional assay, M4; assay type: cell-based; settings: for EC50: read-out: pEC50 M4 (converted); for Emax: CHO, read-out: % Emax cf. ACh, M4, CHO cells stably expressing human M4; for Emax / % Emax cf. ACh, M4: relative to ACh
T1 construct: expressed in transfected cells
T1 sequence (P08173 1-479): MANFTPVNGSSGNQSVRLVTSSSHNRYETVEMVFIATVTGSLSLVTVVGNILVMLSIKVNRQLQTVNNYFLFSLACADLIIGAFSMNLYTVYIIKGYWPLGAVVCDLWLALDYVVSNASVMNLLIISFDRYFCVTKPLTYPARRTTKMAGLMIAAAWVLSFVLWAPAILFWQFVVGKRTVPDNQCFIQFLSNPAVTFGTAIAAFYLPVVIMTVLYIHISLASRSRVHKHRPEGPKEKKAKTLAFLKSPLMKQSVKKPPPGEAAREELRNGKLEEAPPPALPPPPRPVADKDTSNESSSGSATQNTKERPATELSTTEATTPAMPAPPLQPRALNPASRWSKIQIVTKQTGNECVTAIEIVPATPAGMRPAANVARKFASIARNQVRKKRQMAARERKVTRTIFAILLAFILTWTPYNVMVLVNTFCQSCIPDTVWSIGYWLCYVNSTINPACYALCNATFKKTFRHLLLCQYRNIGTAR

[2] = target: T2, human muscarinic M2 receptor (Homo sapiens, UniProt P08172); experiment: Alphascreen Surefire phospho-ERK1/2 functional assay, M2; settings: for Emax: CHO, read-out: % Emax cf. ACh, M2, CHO cells stably expressing human M2; for Emax / % Emax cf. ACh, M2: relative to ACh
T2 sequence (P08172 1-466): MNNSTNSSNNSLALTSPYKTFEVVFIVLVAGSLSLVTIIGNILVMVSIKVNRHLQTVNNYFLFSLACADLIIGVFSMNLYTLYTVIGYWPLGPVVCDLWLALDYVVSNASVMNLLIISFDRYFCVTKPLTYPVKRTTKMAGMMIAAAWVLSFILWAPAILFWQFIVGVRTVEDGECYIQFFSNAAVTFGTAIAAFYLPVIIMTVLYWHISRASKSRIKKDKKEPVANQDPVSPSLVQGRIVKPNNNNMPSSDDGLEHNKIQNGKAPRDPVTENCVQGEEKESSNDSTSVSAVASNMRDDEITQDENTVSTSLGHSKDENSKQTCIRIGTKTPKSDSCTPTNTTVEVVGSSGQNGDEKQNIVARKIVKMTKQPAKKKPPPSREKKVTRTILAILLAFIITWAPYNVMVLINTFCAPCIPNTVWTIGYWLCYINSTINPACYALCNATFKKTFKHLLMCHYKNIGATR

[3] = target: T3, human muscarinic M1 receptor (Homo sapiens, UniProt P11229); experiment: Alphascreen Surefire phospho-ERK1/2 functional assay, M1; assay type: cell-based; settings: for EC50: read-out: pEC50 M1 (converted); for Emax: CHO, read-out: % Emax cf. ACh, M1, CHO cells stably expressing human M1
T3 sequence (P11229 1-460): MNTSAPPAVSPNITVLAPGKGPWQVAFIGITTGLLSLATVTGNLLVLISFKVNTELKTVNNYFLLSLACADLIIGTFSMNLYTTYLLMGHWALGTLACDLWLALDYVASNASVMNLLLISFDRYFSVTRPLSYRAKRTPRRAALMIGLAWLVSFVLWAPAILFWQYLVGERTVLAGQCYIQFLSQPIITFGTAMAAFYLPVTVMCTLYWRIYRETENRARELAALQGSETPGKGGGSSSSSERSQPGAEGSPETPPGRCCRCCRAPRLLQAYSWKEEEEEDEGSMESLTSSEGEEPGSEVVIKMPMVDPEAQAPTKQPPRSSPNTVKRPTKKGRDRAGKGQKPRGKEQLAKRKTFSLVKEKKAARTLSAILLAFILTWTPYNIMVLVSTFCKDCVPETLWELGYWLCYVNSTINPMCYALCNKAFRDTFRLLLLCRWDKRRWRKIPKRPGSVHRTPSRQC

[4] = target: human muscarinic M3 receptor (Homo sapiens, UniProt P20309); experiment: Alphascreen Surefire phospho-ERK1/2 functional assay, M3; settings: for Emax: CHO, read-out: % Emax cf. ACh, M3, CHO cells stably expressing human M3; for Emax / % Emax cf. ACh, M3: relative to ACh; for EC50: pEC50 M3, CHO cells stably expressing human M3
[5] = CHO cells stably expressing human M4, phospho-ERK1/2, * = variable results
[6] = CHO cells stably expressing human M1, phospho-ERK1/2, * = variable results
[7] = phospho-ERK1/2, * = variable results
[8] = CHO cells stably expressing human M4
[9] = CHO cells stably expressing human M2
[10] = CHO cells stably expressing human M3

human muscarinic M3 receptor, sequence (P20309 whole entry): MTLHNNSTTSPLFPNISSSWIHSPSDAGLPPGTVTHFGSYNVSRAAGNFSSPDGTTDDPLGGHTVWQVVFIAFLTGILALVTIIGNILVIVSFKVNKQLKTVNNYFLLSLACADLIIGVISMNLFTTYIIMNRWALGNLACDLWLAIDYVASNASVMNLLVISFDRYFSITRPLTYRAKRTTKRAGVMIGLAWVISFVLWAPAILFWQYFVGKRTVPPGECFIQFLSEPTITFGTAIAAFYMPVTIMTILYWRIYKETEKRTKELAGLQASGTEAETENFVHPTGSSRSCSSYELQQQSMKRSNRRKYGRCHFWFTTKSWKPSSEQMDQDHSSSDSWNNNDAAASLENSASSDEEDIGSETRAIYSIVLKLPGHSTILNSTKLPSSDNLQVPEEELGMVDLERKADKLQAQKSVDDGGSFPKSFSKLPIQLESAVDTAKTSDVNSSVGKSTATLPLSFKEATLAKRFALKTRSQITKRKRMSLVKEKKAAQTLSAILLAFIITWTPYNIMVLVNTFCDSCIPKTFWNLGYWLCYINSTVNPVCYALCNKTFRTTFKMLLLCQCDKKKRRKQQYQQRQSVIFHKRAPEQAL

Row | EC50 [1, 5] [nM] | Emax [1] [%] | EC50 [2] [nM] | Emax [2] [%] | EC50 [3, 6] [nM] | Emax ([3]; relative to ACh) [%] | Emax [4] [%] | EC50 [4, 7] [nM] | SMILES | % Emax cf. ACh, M4 [1, 8] [%] | % Emax cf. ACh, M2 [2, 9] [%] | % Emax cf. ACh, M3 [4, 10] [%] | pEC50 M4 [1, 5] | pEC50 M2 ([2]; CHO cells stably expressing human M2, phospho-ERK1/2, * = variable results) | pEC50 M1 [3, 6] | % Emax cf. ACh, M1 ([3]; CHO cells stably expressing human M1, relative to ACh) [%] | pEC50 M3 ([4]; CHO cells stably expressing human M3, phospho-ERK1/2, * = variable results)
1 | 15.8 | 60 | > 20000 | 9 | 501 | 52 | 9 | > 20000 | CCOC(=O)N1CCC2(CC(N3CCC(C4CCCN(CC)C4=O)CC3)C2)C1 (single isomer, unassigned) [4-5 Isomer 2, ethyl 2-(1-ethyl-2-oxo-[3,4′-bipiperidin]-1′-yl)-6-azaspiro[3.4]octane-6-carboxylate] |  |  |  |  |  |  |  | 
2 | 7.94 | 113 | > 20000 | 3 | 631 | 44 | 10 | > 20000 | CCNC(=O)N1CCCC1C1CCN(C2CC3(CCN(C(=O)OCC)C3)C2)CC1 (single isomer, unassigned) [2-19 Isomer 2, ethyl 2-{4-[1-(ethylcarbamoyl)pyrrolidin-2-yl]piperidin-1-yl}-6-azaspiro[3.4]octane-6-carboxylate] |  |  |  |  |  |  |  | 
3 | 7.94 | 112 | > 20000 | 20 | 63.1 | 121 | 26 | > 20000 | CCOC(=O)N1CCC2(CC(N3CCC(c4ncc[nH]4)CC3)C2)C1 (single isomer, unassigned) [1-1 Isomer 2, ethyl 2-[4-(1H-imidazol-2-yl)piperidin-1-yl]-6-azaspiro[3.4]octane-6-carboxylate] |  |  |  |  |  |  |  | 
4 | 25.1 |  | > 20000 |  | 2000 | 74 |  | > 20000 | CCOC(=O)N1CCC2(CC(N3CCC([C@@H]4CCCN4C(=O)N(C)OC)CC3)C2)C1 (single isomer, unassigned) [2-34 Isomer 1] | 89 | 16 | 8 |  |  |  |  | 
5 | 50.1 | 77 | > 20000 | 75 | 126 | 66 | 9 | > 20000 | CCOC(=O)N1CCC2(CC(N3CCC(C4CCCN(C(C)C)C4=O)CC3)C2)C1 (single isomer, unassigned) [4-6 Isomer 2, ethyl 2-[2-oxo-1-(propan-2-yl)-3,4′-bipiperidin-1′-yl]-6-azaspiro[3.4]octane-6-carboxylate] |  |  |  |  |  |  |  | 
6 | 39.8 | 44 | > 20000 | 80 | 316 | 25 | 5 | > 20000 | CCOC(=O)N1CCC2(CC(N3CCC(N4CC(F)(F)C[C@@H]4C(=O)NC)CC3)C2)C1 (single isomer, unassigned) [2-88 Isomer 2] |  |  |  |  |  |  |  | 
7 | 100 | 59 | > 20000 | 10 | 631 | 51 | 13 | > 20000 | CCOC(=O)N1CCC2(CC(N3CCC(N4CCCC(F)(F)C4)CC3)C2)C1 (single isomer, unassigned) [4-13 Isomer 2, ethyl 2-(3,3-difluoro-1,4′-bipiperidin-1′-yl)-6-azaspiro[3.4]octane-6-carboxylate] |  |  |  |  |  |  |  | 
8 |  |  |  |  |  |  |  |  | CCOC(=O)N1CCC2(CC(N3CCC(C#N)(c4ccccn4)CC3)C2)C1 (single isomer, unassigned; isomer 2) [3-10 Isomer 2] | 103 | 96 | 0 | 8.9 | 7.0 | 8.0 | 90 | < 4.7
9 | 25.1 | 97 | > 20000 | 15 | 158 | 97 | 22 | > 20000 | CCOC(=O)N1CCC2(CC(N3CCC(c4nccn4C)CC3)C2)C1 (single isomer, unassigned) [1-7 Isomer 2, ethyl 2-[4-(1-methyl-1H-imidazol-2-yl)piperidin-1-yl]-6-azaspiro[3.4]octane-6-carboxylate] |  |  |  |  |  |  |  | 
10 | 126 | 69 | > 20000 | 7 | 2000 | 63 | 7 | > 20000 | COC(=O)N1CCC2(CC(N3CCC(c4c(C)cnn4C)CC3)C2)C1 (single isomer, unassigned) [1-57 Isomer 2, methyl 2-[4-(1,4-dimethyl-1H-pyrazol-5-yl)piperidin-1-yl]-6-azaspiro[3.4]octane-6-carboxylate] |  |  |  |  |  |  |  | 
11 | 6.31 | 76 | 316 | 27 | 39.8 | 123 | 16 | > 20000 | COC(=O)N1CCC2(CC(N3CCC(n4cc(C)cn4)CC3)C2)C1 (single isomer, unassigned) [1-42 Isomer 2, methyl 2-[4-(4-methyl-1H-pyrazol-1-yl)piperidin-1-yl]-6-azaspiro[3.4]octane-6-carboxylate] |  |  |  |  |  |  |  | 
12 | 10 | 73 | > 20000 | 0.4 | 31.6 | 24 | 15 | > 20000 | CCOC(=O)N1CCC2(CC(N3CCC([C@@H]4CCCN4C(=O)N4CCC4)CC3)C2)C1 (single isomer, unassigned) [2-27 Isomer 2] |  |  |  |  |  |  |  | 
13 | 3.98 | 128 | > 20000 | 15 | 50.1 | 110 | 13 | > 20000 | CCOC(=O)N1CCC2(CC(N3CCC(c4nccs4)CC3)C2)C1 (single isomer, unassigned) [1-25 Isomer 2, ethyl 2-[4-(1,3-thiazol-2-yl)piperidin-1-yl]-6-azaspiro[3.4]octane-6-carboxylate] |  |  |  |  |  |  |  | 
14 | 15.8 | 81 | ≥ 20000 | 82 | > 20000 | 7 | 19 | > 20000 | CCOC(=O)N1CCC2(CC(N3CCC(c4ccnn4CC)CC3)C2)C1 (single isomer, unassigned) [1-47 Isomer 2, ethyl 2-[4-(1-ethyl-1H-pyrazol-5-yl)piperidin-1-yl]-6-azaspiro[3.4]octane-6-carboxylate] |  |  |  |  |  |  |  | 
15 | 31.6 | 90 | > 20000 | 2 | 794 | 78 | 1 | > 20000 | COC(=O)N1CCC2(CC(N3CCC([C@@H]4CCCN4C(=O)NCC(F)(F)F)CC3)C2)C1 (single isomer, unassigned) [2-40 Isomer 2] |  |  |  |  |  |  |  | 
16 | 15.8 | 98 | > 20000 | 34 | 316 | 76 | 0 | > 20000 | CCOC(=O)N1CCC2(CC(N3CCC(c4nccn4C(=O)OCC)CC3)C2)C1 (single isomer, unassigned) [1-8 Isomer 2, ethyl 2-{4-[1-(ethoxycarbonyl)-1H-imidazol-2-yl]piperidin-1-yl}-6-azaspiro[3.4]octane-6-carboxylate] |  |  |  |  |  |  |  | 
